Experimental data as given in US11084808B2, “Oxopicolinamide derivative, preparation method therefor and pharmaceutical use thereof” (Jiangsu Hengrui Medicine Co., Ltd., priority 2016, dated 2021).

These compounds were tested on human blood (assay: In vitro anticoagulant effect on human blood (APTT, CT2)). Details: Table 2; concentration of the compound corresponding to 2 times the APTT of the blank control; human plasma.
Assay type: biochemical
Description: Test Example 2: Determination of In Vitro Anticoagulant Effect of the Compounds of the Present Invention on Human Blood
1. Experimental Materials
Plasma: Human blood was collected in blood collection tubes containing no anticoagulant, and then 3.8% sodium citrate (volume ratio 1:9) was added. The tubes were centrifuged at 2500 rpm for 10 minutes at room temperature, and then the plasma was collected and stored at −80° C.:
Reagents: APTT reagent (Activated partial thromboplastin time assay kit, SIEMENS, Art. No. B4218-1), calcium chloride solution;
Instrument: Coagulation instrument (SYSMEX, CA-500).
The divided plasma was melted at room temperature and mixed well. 10000 μM the test compound dissolved in 100% DMSO was diluted to 3000, 300, 200, 150, 75, 30, 10, 3, 0.3 μM with 100% DMSO, and the blank was 100% DMSO. The reagent, plasma, and compound were placed in corresponding positions in the coagulation instrument, and APTT detection of the compound was carried out.
Curve fitting was carried out by graphpad and CT2 was calculated, i.e., the concentration of the compound corresponding to 2 times the APTT of the blank control.
For [2H]C([2H])([2H])Oc1cn([C@@H](Cc2ccccc2)C(=O)Nc2ccc(C(=O)O)cc2)c(=O)cc1-c1cc(Cl)ccc1C(C)=O [Example 179, 4-[[(2S)-2-[4-(2-acetyl-5-chloro-phenyl)-2-oxo-5-(trideuteromethoxy)-1-pyridyl]-3-phenyl-propionyl]amino]benzoic acid], the “CT2 (compound concentration doubling APTT)” value (“CT2” for short) was 3.3 µM. For COc1cn([C@@H](Cc2ccccc2)C(=O)Nc2ccc3nn(C)cc3c2)c(=O)cc1-c1cc(Cl)ccc1C(C)=O [Example 20, (S)-2-(4-(2-acetyl-5-chlorophenyl)-5-methoxy-2-oxopyridin-1(2H)-yl)-N-(2-methyl-2H-indazol-5-yl)-3-phenylpropanamide], the “CT2” value was 6.5 µM. In the case of CCC(=O)c1ccc(Cl)cc1-c1cc(=O)n(C(Cc2ccn(C3CC3)n2)C(=O)Nc2ccc(C(=O)O)cc2)cc1OC (stereo not drawn) [Example 91, 4-(2-(4-(5-chloro-2-propionylphenyl)-5-methoxy-2-oxopyridin-(2H)-yl)-3-(1-cyclopropyl-1H-pyrazol-3-yl)propanamido)benzoic acid], the “CT2” value is reported as 2.1 µM. In the case of CCC(=O)c1ccc(Cl)cc1-c1cc(=O)n([C@H](CCOC(C)(C)C)C(=O)Nc2ccc(C(=O)O)cc2)cc1OC [Example 109, (R)-4-(4-(tert-butoxy)-2-(4-(5-chloro-2-propionylphenyl)-5-methoxy-2-oxopyridin-1(2H)-yl)butanamido)benzoic acid], the “CT2” value is reported as over 10000 µM. In the case of COc1cn(C(Cc2ccn(C3CC3)n2)C(=O)Nc2ccc3ncncc3c2)c(=O)cc1-c1cc(Cl)ccc1C(C)=O (stereo not drawn) [Example 98, 2-(4-(2-acetyl-5-chlorophenyl)-5-methoxy-2-oxopyridin-1(2H)-yl)-3-(1-cyclopropyl-1H-pyrazol-3-yl)-N-(quinazolin-6-yl)propanamide], the “CT2” value is reported as 7.6 µM. For CNC(=O)c1ccc(NC(=O)[C@H](Cc2ccccc2)n2cc(OC)c(-c3cc(Cl)ccc3C(C)=O)cc2=O)cc1 [Example 13, (S)-4-(2-(4-(2-acetyl-5-chlorophenyl)-5-methoxy-2-oxopyridin-1(2H)-yl)-3-phenylpropanamido)-N-methylbenzamide], the “CT2” value was 6.0 µM. In the case of [2H]C([2H])([2H])Oc1cn([C@H](Cc2ccccc2)C(=O)Nc2ccc(C(=O)O)cc2)c(=O)cc1-c1cc(Cl)ccc1C(C)=O [Example 180, 4-[[(2R)-2-[4-(2-acetyl-5-chloro-phenyl)-2-oxo-5-(trideuteromethoxy)-1-pyridyl]-3-phenyl-propionyl]amino]benzoic acid], the “CT2” value is reported as over 10000 µM. For [2H]C([2H])([2H])Oc1cn([C@@H](CCOC(C)(C)C)C(=O)Nc2ccc(C(=O)O)cc2)c(=O)cc1-c1cc(Cl)ccc1C(=O)CC [Example 177, 4-[[(2S)-4-tert-butoxy-2-[4-(5-chloro-2-propionyl-phenyl)-2-oxo-5-(trideuteromethoxy)-1-pyridyl]butyryl]amino]benzoic acid], the “CT2” value was 1.5 µM. In the case of CCNC(=O)c1ccc(NC(=O)[C@H](Cc2ccccc2)n2cc(OC)c(-c3cc(Cl)ccc3C(C)=O)cc2=O)cc1 [Example 37, (S)-4-(2-(4-(2-acetyl-5-chlorophenyl)-5-methoxy-2-oxopyridin-1(2H)-yl)-3-phenylpropanamido)-N-ethylbenzamide], the “CT2” value is reported as 7.8 µM. In the case of CCC(=O)c1ccc(Cl)cc1-c1cc(=O)n(C(CC2CCCCO2)C(=O)Nc2ccc(C(=O)O)cc2)cc1OC (stereo not drawn) [Example 166], the “CT2” value is reported as 7.2 µM. In the case of CCC(=O)c1ccc(Cl)cc1-c1cc(=O)n([C@@H](Cc2ccccc2)C(=O)Nc2ccc(C(=O)O)cc2)cc1OC [Example 9, (S)-4-(2-(4-(5-chloro-2-propionylphenyl)-5-methoxy-2-oxopyridin-1(2H)-yl)-3-phenylpropanamido)benzoic acid], the “CT2” value is reported as 2.4 µM. For COc1cn([C@@H](Cc2ccccc2)C(=O)Nc2ccc(C(=O)O)cc2)c(=O)cc1-c1c(C(C)=O)ccc(Cl)c1F [Example 31, (S)-4-(2-(4-(6-acetyl-3-chloro-2-fluorophenyl)-5-methoxy-2-oxopyridin-1(2H)-yl)-3-phenylpropanamido)benzoic acid], the “CT2” value was 8.5 µM. COc1cn([C@H](Cc2ccccn2)C(=O)Nc2ccc(C(=O)O)cc2)c(=O)cc1-c1cc(Cl)ccc1C(C)=O [Example 81, (R)-4-(2-(4-(2-acetyl-5-chlorophenyl)-5-methoxy-2-oxopyridin-1(2H)-yl)-3-(pyridin-2-yl)propanamido)benzoic acid] was tested, and the “CT2” value was over 10000 µM. In the case of CCC(=O)c1ccc(Cl)cc1-c1cc(=O)n(C(Cc2ccn(C)n2)C(=O)Nc2ccc(C(=O)O)cc2)cc1OC (stereo not drawn) [Example 99, 4-(2-(4-(5-chloro-2-propionylphenyl)-5-methoxy-2-oxopyridin-1(2H)-yl)-3-(1-methyl-1H-pyrazol-3-yl)propanamido)benzoic acid], the “CT2” value is reported as 3.5 µM. COc1cn(C(Cc2ccccc2)C(=O)Nc2ccc(C(=O)O)cc2)c(=O)cc1-c1cc(Cl)ccc1C(=O)CC1CC1 (stereo not drawn) [Example 39, 4-(2-(4-(5-chloro-2-(2-cyclopropylacetyl)phenyl)-5-methoxy-2-oxopyridin-1(2H)-yl)-3-phenylpropanamido)benzoic acid] was tested, and the “CT2” value was 8.3 µM. COc1cn([C@H](CC2CCC2)C(=O)Nc2ccc(C(=O)O)cc2)c(=O)cc1-c1c(C(C)=O)ccc(Cl)c1F [Example 160, (R)-4-(2-(4-(6-acetyl-3-chloro-2-fluorophenyl)-5-methoxy-2-oxopyridin-1(2H)-yl)-3-cyclobutylpropanamido)benzoic acid] was tested, and the “CT2” value was 3.8 µM. With COc1cn([C@H](CCOC2CCC2)C(=O)Nc2ccc(C(=O)O)cc2)c(=O)cc1-c1cc(Cl)ccc1C(C)=O [Example 163, (R)-4-(2-(4-(2-acetyl-5-chlorophenyl)-5-methoxy-2-oxopyridin-1(2H)-yl)-4-cyclobutoxybutanamido)benzoic acid] the “CT2” value was over 10000 µM. With [2H]C([2H])([2H])C(=O)c1ccc(Cl)cc1-c1cc(=O)n([C@@H](Cc2ccccc2)C(=O)Nc2ccc(C(=O)O)cc2)cc1OC [Example 183, 4-[[(2S)-2-[4-[5-chloro-2-(2,2,2-trideuteroacetyl)phenyl]-5-methoxy-2-oxo-1-pyridyl]-3-phenyl-propionyl]amino]benzoic acid] the “CT2” value was 2.6 µM. COc1cn([C@@H](CCOC(C)(C)C)C(=O)Nc2ccc(C(=O)O)cc2)c(=O)cc1-c1cc(Cl)ccc1C(C)=O [Example 111, (S)-4-(2-(4-(2-acetyl-5-chlorophenyl)-5-methoxy-2-oxopyridin-1(2H)-yl)-4-(tert-butoxy)butanamido)benzoic acid] was tested, and the “CT2” value was 3.2 µM. COc1cn([C@H](CCOC(C)(C)C)C(=O)Nc2ccc(C(=O)O)cc2)c(=O)cc1-c1cc(Cl)ccc1C(C)=O [Example 112, (R)-4-(2-(4-(2-acetyl-5-chlorophenyl)-5-methoxy-2-oxopyridin-(2H)-yl)-4-(tert-butoxy)butanamido)benzoic acid] was tested, and the “CT2” value was over 10000 µM. In the case of COc1cn([C@H](Cc2ccccc2)C(=O)Nc2ccc(C(=O)O)cc2)c(=O)cc1-c1cc(Cl)ccc1C(C)=O [Example 6, (R)-4-(2-(4-(2-acetyl-5-chlorophenyl)-5-methoxy-2-oxopyridin-1(2H)-yl)-3-phenylpropanamido)benzoic acid], the “CT2” value is reported as over 10000 µM. For COc1cn([C@H](Cc2cnn(C)c2)C(=O)Nc2ccc(C(=O)O)cc2)c(=O)cc1-c1cc(Cl)ccc1C(C)=O [Example 104, (R)-4-(2-(4-(2-acetyl-5-chlorophenyl)-5-methoxy-2-oxopyridin-1(2H)-yl)-3-(1-methyl-1H-pyrazol-4-yl)propanamido)benzoic acid], the “CT2” value was over 10000 µM. In the case of COCCC(C(=O)Nc1ccc2[nH]c(C(=O)O)cc2c1)n1cc(OC)c(-c2cc(Cl)ccc2C(C)=O)cc1=O (stereo not drawn) [Example 1, 5-(2-(4-(2-acetyl-5-chlorophenyl)-5-methoxy-2-oxopyridin-1(2H)-yl)-4-methoxybutanamido)-1H-indole-2-carboxylic acid], the “CT2” value is reported as 4.4 µM. With COc1cn(C(Cc2ccn(C3CC3)n2)C(=O)Nc2ccc3nn(C)cc3c2)c(=O)cc1-c1cc(Cl)ccc1C(C)=O (stereo not drawn) [Example 97, 2-(4-(2-acetyl-5-chlorophenyl)-5-methoxy-2-oxopyridin-(2H)-yl)-3-(1-cyclopropyl-1H-pyrazol-3-yl)-N-(2-methyl-2H-indazol-5-yl)propanamide] the “CT2” value was 5.4 µM. With COc1cn([C@@H](Cc2ccccc2)C(=O)Nc2ccc(C(N)=O)cc2)c(=O)cc1-c1cc(Cl)ccc1C(C)=O [Example 11, (S)-4-(2-(4-(2-acetyl-5-chlorophenyl)-5-methoxy-2-oxopyridin-1(2H)-yl)-3-phenylpropanamido)benzamide] the “CT2” value was 4.2 µM. For COc1cn([C@@H](Cc2ccn(C3CC3)n2)C(=O)Nc2ccc(C(=O)O)cc2)c(=O)cc1-c1cc(Cl)ccc1C(C)=O [Example 94, (S)-4-(2-(4-(2-acetyl-5-chlorophenyl)-5-methoxy-2-oxopyridin-1(2H)-yl)-3-(1-cyclopropyl-1H-pyrazol-3-yl)propanamido)benzoic acid], the “CT2” value was 2.2 µM. In the case of COCC[C@@H](C(=O)Nc1ccc2[nH]c(C(=O)O)cc2c1)n1cc(OC)c(-c2cc(Cl)ccc2C(C)=O)cc1=O [Example 2, (S)-5-(2-(4-(2-acetyl-5-chlorophenyl)-5-methoxy-2-oxopyridin-1(2H)-yl)-4-methoxybutanamido)-1H-indole-2-carboxylic acid], the “CT2” value is reported as 2.9 µM.
